Results: US5663196A, “Methods for treating neoplastic disorders” (Boston University, priority 1993, dated 1997)
Like-named read-outs stand apart in the source and are kept apart here.

Experiments:
BW lymphoma cells = experiment: 35S-Methionine Incorporation (protein synthesis), BW; assay type: cell-based; details: Mus musculus; for activity at 1 µg/mL: 1 μg/mL; for activity at 10 µg/mL: 10 μg/mL
Source text: 3) ^35 S-Methionine Incorporation Test as described by Sorenson, C. M., Barry, M. A., Eastman, A. J. Natl. Canc. Inst. 1990, 82, 749. The results are expressed as percent ^35 S-methionine incorporation relative to an untreated control:
[% ^35 S-methionine incorporation]=[cpm agent treated cells]/[cpm
where cpm=counts per minute. Treatments resulting in [% ^35 S-methionine incorporation] of <50% are considered active.
The ^35 S-methionine incorporation test therefore measures protein synthesis. Activity in this bioassay could arise from inhibition of transcription and/or translation.
In this test, BW and LK lymphoma cells were treated with the preferred purified active agent at 1 μg/mL and 10 μg/mL for comparison with an untreated control. The treated cells were split into two groups, one of which was thoroughly washed to remove the preferred purified active agent prior to incubation with ^35 S-methionine.

[1] = tested on: BW (BW5147) lymphoma cells; experiment: 3H-Thymidine Incorporation, BW (BW5147); assay type: cell-based, mouse
Source text: (§1) 2) The ^3 H-Thymidine Incorporation Test as described by Ju, S. T., Dorf, M. E. J. Immunol. 1985, 134, 3722. This test was used for monitoring cellular proliferation by monitoring DNA synthesis. The results are expressed as percent ^3 H-thymidine incorporation relative to an untreated control:
(§2) [% ^3 H-thymidine incorporation]=[cpm agent treated cells]/[cpm
(§3) where cpm=counts per minute. Treatments resulting in [% ^3 H-thymidine incorporation] of <50% are considered active.
The ^3 H-thymidine incorporation assay therefore measures the amount of DNA synthesis when the cells are in the "S" phase of the cell cycle, and is used to assess cell proliferation. […]
With the preferred purified active agent in hand, ^3 H-thymidine incorporation and trypan blue assays were initially performed at different dosages using LK and BW lymphoma ceil lines in order to confirm the activity of the preferred purified active agent, and to bracket the active concentration range for the preferred purified active agent. […] In addition, the time course of cell viability in the trypan blue assay was also monitored in order to best optimize subsequent assays to ensure that the cells were still viable at the time of measurement, and to ensure a nontoxic response of the cells to the agent. […] Consequently the results of the in vitro assays employing purified agent were all recorded after 24 hours. […]

LK lymphoma cells = experiment: Trypan Blue cell viability, LK; assay type: cell-based; details: Mus musculus, read-out: Trypan Blue Cell Viability (%)
Source text: (§4) 1) The Trypan Blue Dye Exclusion Test for monitoring ceil viability as described by Phillips, H. J., in Tissue Culture Methods and Applications; Kruse, P. F., Jr., Patterson, M. K., Eds.; Academic Press, New York, 1973, 406, and by Wu, Y. W., Chik, L. L., Knazek, R. A. Cancer Research 1989, 49, 3754. The results of this assay are expressed as a percentage of viable cells:
(§5) [% viable cells]=[no. of alive cells]/[total no. of cells]×100
(§6) where the total no. cells=dead cells+alive cells. The results are compared directly with an untreated control, which typically show a three-to-four-fold increase for cancer cells, and a two-fold increase for normal cells. Treatments resulting in [% viable cells] of <30% are considered cytotoxic. Therefore, the trypan blue dye exclusion test was used to assess the number of dead and alive cells using various cell lines upon treatment with the crude and purified agent. This test provides a simple clue to the acute or late onset of a cytotoxic response. Readings for this and all other in vitro assays were taken 48 hours after treatment with the unpurified agent, and also […] after treatment for the purified agent. Thus, the trypan blue dye exclusion assay functions to confirm whether or not the cells were viable at the time readings were taken for other bioassays.
(§7) With the preferred purified active agent in hand, ^3 H-thymidine incorporation and trypan blue assays were initially performed at different dosages using LK and BW lymphoma ceil lines in order to confirm the activity of the preferred purified active agent, and to bracket the active concentration range for the preferred purified active agent. With a molecular weight of 328, a 1 μg/mL solution corresponds to 3 μM concentration. In addition, the time course of cell viability in the trypan blue assay was also monitored in order to best optimize subsequent assays to ensure that the cells were still viable at the time of measurement, and to ensure a nontoxic response of the cells to the agent. Toxicity of the agent would have been observed as cell death within 2 hours. The trypan blue assays (Table 7), run at 30 μM and 3 μM of purified agent (10 and 1 μg/mL, respectively), indicated excellent cell viability after 24 hours, though with a significant drop in viability after 48 hours at a 30 μM dose of preferred purified active agent. Consequently the results of the in vitro assays employing purified agent were all recorded after 24 hours. In the ^3 H-thymidine incorporation assay (Table 8), dosages ranging from 0.1 to 250 μg/mL were examined.

[2] = tested on: EL-4 cells (type T lymphoma); experiment: 3H-Thymidine Incorporation, EL-4; assay type: cell-based; details: Mus musculus, read-out: 3H-Thymidine Incorporation (DNA Synthesis) Inhibition (%)
Source text: as §1, §2, §3
(§8) The ^3 H-thymidine incorporation assay therefore measures the amount of DNA synthesis when the cells are in the "S" phase of the cell cycle, and is used to assess cell proliferation. Cancer cells, which have a very rapid cell cycle turnover, normally incorporate large amounts of tritium (^3 H) unless inhibited by an exogenous agent. […] While the trypan blue dye exclusion test is an indicator of cell death, the ^3 H-thymidine incorporation test indicates a cytostatic status (not necessarily cytotoxic) of the cell. As previously noted, this latter test was the primary screen used to guide the isolation to the active agent.

[3] = tested on: RDM-4 cells (type T lymphoma); experiment: 3H-Thymidine Incorporation, RDM-4; assay type: cell-based; details: Mus musculus, read-out: 3H-Thymidine Incorporation (DNA Synthesis) Inhibition (%)
Source text: as §1, §2, §3, §8
The final in vitro assays performed with the preferred purified active agent were intended to examine the scope of the activity in the trypan blue assay against a wider range of tumor cell lines (Tables 10 and 11). These cell lines included a […] lymphoma BW8767, a BW mutant which is more resistant than the BW cell lines used in other assays, as evidenced by the results in Tables 10 and 11.

C7 cloned T-cells [4] = experiment: Trypan Blue cell viability, C7; assay type: cell-based; details: Mus musculus, read-out: Trypan Blue Cell Viability (%)
Source text: as §4, §5, §6
(§9) Each of these three fractions were then tested in the trypan blue and ^3 H-thymidine incorporation assays along with the original CsA as a control, against the LS cell line, which was the most sensitive of the cancer lines (Tables 3 and 4). […] The results of the trypan blue and ^3 H-thymidine incorporation assays against the three cell lines are compiled in Tables 5a-5f.

C7 cloned T-cells [5] = experiment: 3H-Thymidine Incorporation, C7; assay type: cell-based; details: Mus musculus, T-cell, read-out: 3H-Thymidine Incorporation (DNA Synthesis) Inhibition (%)
Source text: as §1, §2, §3, §8, §9

P815 cells (mastocytoma) = experiment: 3H-Thymidine Incorporation, P815; assay type: cell-based; details: Mus musculus, read-out: 3H-Thymidine Incorporation (DNA Synthesis) Inhibition (%)
Source text: as §1, §2, §3, §8

[6] = tested on: BW (BW5147) lymphoma cells; experiment: Trypan Blue cell viability, BW (BW5147); assay type: cell-based; details: Mus musculus, read-out: Trypan Blue Cell Viability (%)
Source text: as §4, §5, §6, §7

CC1=C2C(=O)C=C(CO)[C@@H]2[C@H]2OC(=O)[C@@H](C)[C@@H]2[C@@H](O)C1 [11β,13-dihydrolactucin, 3,6-dimethyl-4-hydroxy-9-hydroxymethyl-3,3a,4,5,9a,9b-hexahydroazuleno[4,5-b]furan-2,7-dione]
activity at 1 µg/mL (BW lymphoma cells; BW (washed)): 100% | activity at 10 µg/mL (BW lymphoma cells; BW (washed)): 100% | activity at 1 µg/mL (BW lymphoma cells; BW, unwashed): 10% | activity at 10 µg/mL (BW lymphoma cells; BW, unwashed): 2% | ED50, 3H-thymidine incorporation [1]: micromolar range | viability at 1 µg/mL (LK lymphoma cells; 2 h): 100% | viability at 10 µg/mL (LK lymphoma cells; 2 h): 100% | viability at 1 µg/mL (LK lymphoma cells; 5 h): 100% | viability at 10 µg/mL (LK lymphoma cells; 5 h): 100% | viability at 1 µg/mL (LK lymphoma cells; 12 h): 100% | viability at 10 µg/mL (LK lymphoma cells; 12 h): 100% | viability at 1 µg/mL (LK lymphoma cells; 24 h): 100% | viability at 10 µg/mL (LK lymphoma cells; 24 h): 85% | viability at 1 µg/mL (LK lymphoma cells; 36 h): 90% | viability at 10 µg/mL (LK lymphoma cells; 36 h): 72% | viability at 1 µg/mL (LK lymphoma cells; 48 h): 90% | viability at 10 µg/mL (LK lymphoma cells; 48 h): 60% | inhibition at 0.1 µg/mL ([2]; EL4, 0.1 μg/mL): 100% | inhibition at 0.5 µg/mL ([2]; EL4, 0.5 μg/mL): 100% | inhibition at 1 µg/mL ([2]; EL4, 1.0 μg/mL): 78% | inhibition at 10 µg/mL ([2]; EL4, 10 μg/mL): 38% | inhibition at 0.1 µg/mL ([3]; 0.1 μg/mL): 100% | inhibition at 0.5 µg/mL ([3]; 0.5 μg/mL): 100% | inhibition at 1 µg/mL ([3]; 1.0 μg/mL): 80% | inhibition at 10 µg/mL ([3]; 10 μg/mL): 60% | viability at 0.1 µg/mL (C7 cloned T-cells [4]): 100% | viability at 0.5 µg/mL (C7 cloned T-cells [4]): 100% | viability at 1 µg/mL (C7 cloned T-cells [4]): 100% | viability at 10 µg/mL (C7 cloned T-cells [4]): 90% | inhibition at 0.1 µg/mL (C7 cloned T-cells [5]; 0.1 μg/mL): 100% | inhibition at 0.5 µg/mL (C7 cloned T-cells [5]; 0.5 μg/mL): 100% | inhibition at 1 µg/mL (C7 cloned T-cells [5]; 1.0 μg/mL): 100% | inhibition at 10 µg/mL (C7 cloned T-cells [5]; 10 μg/mL): 75% | inhibition at 0.1 µg/mL (P815 cells (mastocytoma); 0.1 μg/mL): 100% | inhibition at 0.5 µg/mL (P815 cells (mastocytoma); 0.5 μg/mL): 100% | inhibition at 1 µg/mL (P815 cells (mastocytoma); 1.0 μg/mL): 50% | inhibition at 10 µg/mL (P815 cells (mastocytoma); 10 μg/mL): 36% | viability at 1 µg/mL ([6]; 2 h): 100% | viability at 10 µg/mL ([6]; 2 h): 100% | viability at 1 µg/mL ([6]; 5 h): 100% | viability at 10 µg/mL ([6]; 5 h): 100% | viability at 1 µg/mL ([6]; 12 h): 100% | viability at 10 µg/mL ([6]; 12 h): 100% | viability at 1 µg/mL ([6]; 24 h): 100% | viability at 10 µg/mL ([6]; 24 h): 85% | viability at 1 µg/mL ([6]; 36 h): 90%
